# Source: publication PMC9516332 (Frontiers in Oncology, 2022)
# Like-named read-outs stand apart in the source and are kept apart here.
# Assays:
# AP-1060 (ETV6-NTRK3) = assay: Cell viability assay; conditions: read-out: IC50 in cell proliferation assay
# [1] = biological target: panel of 255 wild-type kinases (Homo sapiens, UniProt Q9Y6M4); assay: Kinase panel profiling at 1 µmol/L (MSA or IMAP), percentage inhibition; format: biochemical; conditions: kinase CK1γ3; 1 µmol/L single concentration; read-out: %-inhibition at 1 µmol/L, CK1γ3
# [2] = biological target: panel of 255 wild-type kinases (Homo sapiens, UniProt P29317); assay: as above; format: biochemical; conditions: kinase EPHA2; 1 µmol/L single concentration; read-out: %-inhibition at 1 µmol/L, EPHA2
# 134 cancer cell lines = assay: Cell viability assay (ATPlite, 72 hours), IC50 on cancer cell line panel
compound,measurement,setting,value
Cc1nc(NC(=O)N2CCC[C@H]2C(N)=O)sc1-c1ccnc(C(C)(C)C(F)(F)F)c1 [alpelisib],IC50,AP-1060 (ETV6-NTRK3),1.74 µM
same,inhibition at 1 µM,[1],-2%
same,inhibition at 1 µM,[2],-6%
same,IC50,"134 cancer cell lines; HEC-6, read-out: IC50 in cell proliferation assay, HEC-6 cell line (EGFR p.A289V)",7.66 µM
same,IC50,"134 cancer cell lines; Homo sapiens, 769-P, read-out: IC50 in cell proliferation assay, cell line 769-P",14.3 µM
same,IC50,"134 cancer cell lines; Homo sapiens, 786-0, read-out: IC50 in cell proliferation assay, cell line 786-O",> 31.6 µM
same,IC50,"134 cancer cell lines; Homo sapiens, A 172, read-out: IC50 in cell proliferation assay, cell line A-172",19.6 µM
same,IC50,"134 cancer cell lines; Homo sapiens, A204, read-out: IC50 in cell proliferation assay, cell line A-204",0.247 µM
same,IC50,"134 cancer cell lines; Homo sapiens, A498, read-out: IC50 in cell proliferation assay, cell line A-498",14.4 µM
same,IC50,"134 cancer cell lines; Homo sapiens, A549, read-out: IC50 in cell proliferation assay, cell line A-549",9.89 µM
same,IC50,"134 cancer cell lines; Homo sapiens, A704, read-out: IC50 in cell proliferation assay, cell line A-704",27 µM
same,IC50,"134 cancer cell lines; Homo sapiens, A-375, read-out: IC50 in cell proliferation assay, cell line A-375 (BRAF p.V600E)",14.9 µM
same,IC50,"134 cancer cell lines; Homo sapiens, A-427, read-out: IC50 in cell proliferation assay, cell line A-427",0.074 µM
same,IC50,"134 cancer cell lines; Homo sapiens, ACHN, read-out: IC50 in cell proliferation assay, cell line ACHN",9.68 µM
same,IC50,"134 cancer cell lines; Homo sapiens, AN3-CA, read-out: IC50 in cell proliferation assay, cell line AN3-CA (FGFR2 p.N549K)",0.697 µM
same,IC50,"134 cancer cell lines; Homo sapiens, ASPC1, read-out: IC50 in cell proliferation assay, cell line AsPC-1",8.97 µM
same,IC50,"134 cancer cell lines; Homo sapiens, AU565, read-out: IC50 in cell proliferation assay, cell line AU565 (ERBB2 amplification)",1.56 µM
same,IC50,"134 cancer cell lines; Homo sapiens, BT-20, read-out: IC50 in cell proliferation assay, cell line BT-20",3.55 µM
same,IC50,"134 cancer cell lines; Homo sapiens, BT-474, read-out: IC50 in cell proliferation assay, cell line BT-474 (ERBB2 amplification)",3.2 µM
same,IC50,"134 cancer cell lines; Homo sapiens, BT-549, read-out: IC50 in cell proliferation assay, cell line BT-549",16.6 µM
same,IC50,"134 cancer cell lines; Homo sapiens, BXPC-3, read-out: IC50 in cell proliferation assay, cell line BxPC-3",5.88 µM
same,IC50,"134 cancer cell lines; Homo sapiens, C-33-A, read-out: IC50 in cell proliferation assay, cell line C-33 A",25.1 µM
same,IC50,"134 cancer cell lines; Homo sapiens, CAL-27, read-out: IC50 in cell proliferation assay, cell line CAL-27",2.31 µM
same,IC50,"134 cancer cell lines; Homo sapiens, CCF-STTG1, read-out: IC50 in cell proliferation assay, cell line CCF-STTG1",> 31.6 µM
same,IC50,"134 cancer cell lines; Homo sapiens, CCRF-CEM, read-out: IC50 in cell proliferation assay, cell line CCRF-CEM",4.28 µM
same,IC50,"134 cancer cell lines; Homo sapiens, COLO 205, read-out: IC50 in cell proliferation assay, cell line COLO 205 (BRAF p.V600E)",14.1 µM
same,IC50,"134 cancer cell lines; Homo sapiens, COLO-829, read-out: IC50 in cell proliferation assay, cell line COLO 829 (BRAF p.V600E)",> 31.6 µM
same,IC50,"134 cancer cell lines; Homo sapiens, DLD-1, read-out: IC50 in cell proliferation assay, cell line DLD-1",0.676 µM
same,IC50,"134 cancer cell lines; Homo sapiens, DU-4475, read-out: IC50 in cell proliferation assay, cell line DU4475 (BRAF p.V600E)",0.628 µM
same,IC50,"134 cancer cell lines; Homo sapiens, Daoy, read-out: IC50 in cell proliferation assay, cell line Daoy",9.36 µM
same,IC50,"134 cancer cell lines; Homo sapiens, DoTc2-4510, read-out: IC50 in cell proliferation assay, cell line DoTc2 4510",1.3 µM
same,IC50,"134 cancer cell lines; Homo sapiens, EOL1, read-out: IC50 in cell proliferation assay, cell line EoL-1 (FIP1L1-PDGFRA)",0.335 µM
same,IC50,"134 cancer cell lines; Homo sapiens, FaDu, read-out: IC50 in cell proliferation assay, cell line FaDu",1.71 µM
same,IC50,"134 cancer cell lines; Homo sapiens, G-361, read-out: IC50 in cell proliferation assay, cell line G-361 (BRAF p.V600E)",16.6 µM
same,IC50,"134 cancer cell lines; Homo sapiens, HCC827, read-out: IC50 in cell proliferation assay, cell line HCC827 (EGFR exon19del)",5.4 µM
same,IC50,"134 cancer cell lines; Homo sapiens, HCC4006, read-out: IC50 in cell proliferation assay, cell line HCC4006 (EGFR exon19del)",4.56 µM
same,IC50,"134 cancer cell lines; Homo sapiens, HCT-15, read-out: IC50 in cell proliferation assay, cell line HCT 15",0.838 µM
same,IC50,"134 cancer cell lines; Homo sapiens, HCT-116, read-out: IC50 in cell proliferation assay, cell line HCT 116",6.31 µM
same,IC50,"134 cancer cell lines; Homo sapiens, HEC-1, read-out: IC50 in cell proliferation assay, HEC-1 cell line",5.84 µM
same,IC50,"134 cancer cell lines; Homo sapiens, HEC-1B, read-out: IC50 in cell proliferation assay, HEC-1-B cell line (EGFR p.A864V)",0.943 µM
same,IC50,"134 cancer cell lines; Homo sapiens, HL-60, read-out: IC50 in cell proliferation assay, HL-60 cell line",1.69 µM
same,IC50,"134 cancer cell lines; Homo sapiens, HT, read-out: IC50 in cell proliferation assay, HT cell line",14.3 µM
same,IC50,"134 cancer cell lines; Homo sapiens, HT-1080, read-out: IC50 in cell proliferation assay, HT-1080 cell line",0.314 µM
same,IC50,"134 cancer cell lines; Homo sapiens, Hs746T, read-out: IC50 in cell proliferation assay, Hs 746.T cell line (MET exon14skip + amplification)",5.75 µM
same,IC50,"134 cancer cell lines; Homo sapiens, Hs-578T, read-out: IC50 in cell proliferation assay, Hs 578T cell line",8.51 µM
same,IC50,"134 cancer cell lines; Homo sapiens, HuTu80, read-out: IC50 in cell proliferation assay, HuTu 80 cell line",1.09 µM
same,IC50,"134 cancer cell lines; Homo sapiens, J82, read-out: IC50 in cell proliferation assay, J82 cell line",> 31.6 µM
same,IC50,"134 cancer cell lines; Homo sapiens, Jurkat E6.1, read-out: IC50 in cell proliferation assay, Jurkat E6.1 cell line",12.9 µM
same,IC50,"134 cancer cell lines; Homo sapiens, K562, read-out: IC50 in cell proliferation assay, K-562 cell line",> 31.6 µM
same,IC50,"134 cancer cell lines; Homo sapiens, KATO III, read-out: IC50 in cell proliferation assay, KATO III cell line (FGFR2 amplification)",2.79 µM
same,IC50,"134 cancer cell lines; Homo sapiens, KG-1, read-out: IC50 in cell proliferation assay, KG-1 cell line (FGFR1OP2-FGFR1)",27.7 µM
same,IC50,"134 cancer cell lines; Homo sapiens, KLE, read-out: IC50 in cell proliferation assay, KLE cell line",5.79 µM
same,IC50,"134 cancer cell lines; Homo sapiens, KMS-11, read-out: IC50 in cell proliferation assay, KMS-11 cell line (FGFR3 p.Y373C)",1.53 µM
same,IC50,"134 cancer cell lines; Homo sapiens, KU812, read-out: IC50 in cell proliferation assay, Ku812 cell line",0.075 µM
same,IC50,"134 cancer cell lines; Homo sapiens, Kasumi 1, read-out: IC50 in cell proliferation assay, Kasumi-1 cell line (KIT p.N822K)",1.9 µM
same,IC50,"134 cancer cell lines; Homo sapiens, LC-2-ad, read-out: IC50 in cell proliferation assay, LC-2/ad cell line (CCDC6-RET)",4.5 µM
same,IC50,"134 cancer cell lines; Homo sapiens, LNCaP-Clone-FGC, read-out: IC50 in cell proliferation assay, LNCaP clone FGC cell line",> 31.6 µM
same,IC50,"134 cancer cell lines; Homo sapiens, LS174T, read-out: IC50 in cell proliferation assay, LS174T cell line",1.9 µM
same,IC50,"134 cancer cell lines; Homo sapiens, LS-411N, read-out: IC50 in cell proliferation assay, LS411N cell line (BRAF p.V600E)",17.4 µM
same,IC50,"134 cancer cell lines; Homo sapiens, LoVo, read-out: IC50 in cell proliferation assay, LoVo cell line",20.5 µM
same,IC50,"134 cancer cell lines; Homo sapiens, MCF7, read-out: IC50 in cell proliferation assay, MCF-7 cell line",2.79 µM
same,IC50,"134 cancer cell lines; Homo sapiens, MDA-MB-231, read-out: IC50 in cell proliferation assay, MDA-MB-231 cell line",> 31.6 µM
same,IC50,"134 cancer cell lines; Homo sapiens, MDA-MB-453, read-out: IC50 in cell proliferation assay, MDA-MB-453 cell line",6.03 µM
same,IC50,"134 cancer cell lines; Homo sapiens, MDA-MB-468, read-out: IC50 in cell proliferation assay, MDA-MB-468 cell line",9.8 µM
same,IC50,"134 cancer cell lines; Homo sapiens, MG-63, read-out: IC50 in cell proliferation assay, MG-63 cell line",3.87 µM
same,IC50,"134 cancer cell lines; Homo sapiens, MIA PaCa-2, read-out: IC50 in cell proliferation assay, MIA PaCa-2 cell line",10.7 µM
same,IC50,"134 cancer cell lines; Homo sapiens, MKN-45, read-out: IC50 in cell proliferation assay, MKN45 cell line (MET amplification)",1.23 µM
